The assay concerns the target FGFR3 enzyme (Millipore) (Homo sapiens (Human), UniProt P22607). The experiment in a line: FGFR3 Enzymatic Assay. Format: biochemical. The conditions noted are these: FRET peptide phosphorylation, 140 μM ATP. As to the method:
The inhibitor potency of compounds of the invention was measured in an enzyme assay that measures peptide phosphorylation using FRET measurements to detect product formation. Inhibitors were serially diluted in DMSO and a volume of 0.5 μL was transferred to the wells of a 384-well plate. A 10 μL volume of FGFR3 enzyme (Millipore) diluted in assay buffer (50 mM HEPES, 10 mM MgCl2, 1 mM EGTA, 0.01% Tween-20, 5 mM DTT, pH 7.5) was added to the plate and pre-incubated for 5-10 minutes. Appropriate controls (enzyme blank and enzyme with no inhibitor) were included on the plate. […] The plate was incubated at 25° C. for 1 hr. […] The plate was allowed to equilibrate for ˜1 hr before scanning the wells on a PheraStar plate reader.
GraphPad prism3 was used to analyze the data. The IC50 values were derived by fitting the data to the equation for a sigmoidal dose-response with a variable slope. Y=Bottom+(Top−Bottom)/(1+10^((Log IC50−X)*HillSlope)) where X is the logarithm of concentration and Y is the response.
Chain of FGFR3 enzyme (Millipore) (P22607 23-806): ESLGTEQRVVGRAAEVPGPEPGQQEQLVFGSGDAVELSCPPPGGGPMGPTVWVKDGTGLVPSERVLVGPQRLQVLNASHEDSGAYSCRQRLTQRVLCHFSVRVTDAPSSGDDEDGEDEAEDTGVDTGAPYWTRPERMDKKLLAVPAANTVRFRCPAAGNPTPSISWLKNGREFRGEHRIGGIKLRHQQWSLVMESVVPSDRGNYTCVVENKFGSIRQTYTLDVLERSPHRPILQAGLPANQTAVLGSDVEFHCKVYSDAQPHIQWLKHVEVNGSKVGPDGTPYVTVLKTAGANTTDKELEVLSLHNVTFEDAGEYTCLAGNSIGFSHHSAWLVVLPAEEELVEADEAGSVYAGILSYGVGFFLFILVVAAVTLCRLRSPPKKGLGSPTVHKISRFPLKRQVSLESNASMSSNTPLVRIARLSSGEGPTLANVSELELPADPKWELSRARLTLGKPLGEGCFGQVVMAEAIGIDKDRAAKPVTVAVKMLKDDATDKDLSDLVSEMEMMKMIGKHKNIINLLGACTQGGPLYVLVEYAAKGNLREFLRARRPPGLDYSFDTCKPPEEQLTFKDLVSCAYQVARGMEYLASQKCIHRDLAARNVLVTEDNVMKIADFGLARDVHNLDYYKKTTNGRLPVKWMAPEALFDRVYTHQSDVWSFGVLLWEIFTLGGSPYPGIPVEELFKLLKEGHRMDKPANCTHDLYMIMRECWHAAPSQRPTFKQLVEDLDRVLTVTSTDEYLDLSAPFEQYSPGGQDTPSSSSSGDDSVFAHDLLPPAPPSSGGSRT
`CC(C(=O)NCc1ccccn1)n1cc(-c2cnn3c(-c4cccc(NC(=O)NCC(F)(F)F)c4)cnc3c2)cn1` (centres unmarked) [Example 61, N-(Pyridin-2-ylmethyl)-2-(4-{3-[3-({[(2,2,2-trifluoroethyl)amino]carbonyl}amino)phenyl]imidazo[1,2-b]pyridazin-7-yl}-1H-pyrazol-1-yl)propanamide] registered an IC50 of less than 10 nM. With `CC(C(=O)N1CCC[C@H]1CO)c1ccc(-c2cnn3c(-c4cccc(NC(=O)NCC(F)(F)F)c4)cnc3c2)cc1` (stereo partly drawn) [Example 106, N-{3-[7-(4-{2-[(2S)-2-(Hydroxymethyl)pyrrolidin-1-yl]-1-methyl-2-oxoethyl}phenyl)imidazo[1,2-b]pyridazin-3-yl]phenyl}-N′-(2,2,2-trifluoroethyl)urea] the figure was less than 10 nM; with `O=C(NCC(F)(F)F)Nc1cccc(-n2cnc3cc(-c4cccc(C(=O)NCc5cccnc5)c4)ccc32)c1` [Example 5, N-(Pyridin-3-ylmethyl)-3-{1-[3-({[(2,2,2-trifluoroethyl)amino]carbonyl}amino)phenyl]-1H-benzimidazol-5-yl}benzamide], less than 10 nM. With `O=C(NCC(F)(F)F)Nc1cccc(-c2cnc3cc(-c4cnn(C5CCN(C(=O)C6CCOC6)CC5)c4)cnn23)c1` (centres unmarked) [Example 48, N-[3-(7-{1-[1-(tetrahydrofuran-3-ylcarbonyl)piperidin-4-yl]-1H-pyrazol-4-yl}imidazo[1,2-b]pyridazin-3-yl)phenyl]-N′-(2,2,2-trifluoroethyl)urea] the figure was less than 10 nM; with `CC(C(=O)N(C)C)c1ccc(-c2ccc3c(c2)ncn3-c2cccc(NC(=O)NCC(F)(F)F)c2)cc1` (centres unmarked) [Example 15, N,N-Dimethyl-2-(4-{1-[3-({[(2,2,2-trifluoroethyl)amino]carbonyl}amino)phenyl]-1H-benzimidazol-5-yl}phenyl)propanamide], less than 10 nM; with `O=C(NCC(F)(F)F)Nc1cccc(-n2cnc3cc(-c4cnn(C5CCN(C(=O)C6CCCO6)CC5)c4)ccc32)c1` (centres unmarked) [Example 29, N-[3-(5-{1-[1-(Tetrahydrofuran-2-ylcarbonyl)piperidin-4-yl]-1H-pyrazol-4-yl}-1H-benzimidazol-1-yl)phenyl]-N′-(2,2,2-trifluoroethyl)urea], less than 10 nM. The same measure for `CNC(=O)C(C)c1ccc(-c2ccc3c(c2)ncn3-c2cccc(NC(=O)NCC(F)(F)F)c2)cc1` (centres unmarked) [Example 14, N-Methyl-2-(4-{1-[3-({[(2,2,2-trifluoroethyl)amino]carbonyl}amino)phenyl]-1H-benzimidazol-5-yl}phenyl)propanamide]: less than 10 nM; for `O=C(NCC(F)(F)F)Nc1cccc(-c2cnc3cc(-c4cnn(C5CCN(S(=O)(=O)Cc6ccccc6)CC5)c4)cnn23)c1` [Example 34, N-[3-(7-{1-[1-(Benzylsulfonyl)piperidin-4-yl]-1H-pyrazol-4-yl}imidazo[1,2-b]pyridazin-3-yl)phenyl]-N′-(2,2,2-trifluoroethyl)urea]: less than 10 nM. The molecule `O=C(NCC(F)(F)F)Nc1cccc(-c2cnc3cc(-c4cnn(C5CCN(C(=O)N6CCOCC6)CC5)c4)cnn23)c1` [Example 37, N-[3-(7-{1-[1-(morpholin-4-ylcarbonyl)piperidin-4-yl]-1H-pyrazol-4-yl}imidazo[1,2-b]pyridazin-3-yl)phenyl]-N′-(2,2,2-trifluoroethyl)urea] showed an IC50 of less than 10 nM. For `Cn1ccnc1CNC(=O)c1ccc(-c2ccc3c(c2)ncn3-c2cccc(NC(=O)NCC(F)(F)F)c2)cc1` [Example 13, N-[(1-Methyl-1H-imidazol-2-yl)methyl]-4-{1-[3-({[(2,2,2-trifluoroethyl)amino]carbonyl}amino)phenyl]-1H-benzimidazol-5-yl}benzamide], the IC50 was less than 10 nM. The same measure for `CC(C(=O)N1CC(C#N)C1)n1cc(-c2cnn3c(-c4cccc(NC(=O)NCC(F)(F)F)c4)cnc3c2)cn1` (centres unmarked) [Example 72, N-[3-(7-{1-[2-(3-Cyanoazetidin-1-yl)-1-methyl-2-oxoethyl]-1H-pyrazol-4-yl}imidazo[1,2-b]pyridazin-3-yl)phenyl]-N′-(2,2,2-trifluoroethyl)urea]: less than 10 nM; for `CN(C)CC(=O)N1CC(CC#N)(n2cc(-c3cnn4c(-c5cccc(NC(=O)NCC(F)(F)F)c5)cnc4c3)cn2)C1` [Example 76, N-{3-[7-(1-{3-(Cyanomethyl)-1-[(dimethylamino)acetyl]azetidin-3-yl}-1H-pyrazol-4-yl)imidazo[1,2-b]pyridazin-3-yl]phenyl}-N′-(2,2,2-trifluoroethyl)urea]: less than 10 nM. The molecule `CC(C(=O)N[C@@H]1CCOC1)c1ccc(-c2cnn3c(-c4cccc(NC(=O)NCC(F)(F)F)c4)cnc3c2)cc1` (stereo partly drawn) [Example 103, N-[(3R)-Tetrahydrofuran-3-yl]-2-(4-{3-[3-({[(2,2,2-trifluoroethyl)amino]carbonyl}amino)phenyl]imidazo[1,2-b]pyridazin-7-yl}phenyl)propanamide] registered an IC50 of less than 10 nM. With `CC(C(=O)NCCN1CCCC1=O)n1cc(-c2cnn3c(-c4cccc(NC(=O)NCC(F)(F)F)c4)cnc3c2)cn1` (centres unmarked) [Example 62, N-[2-(2-Oxopyrrolidin-1-yl)ethyl]-2-(4-{3-[3-({[(2,2,2-trifluoroethyl)amino]carbonyl}amino)phenyl]imidazo[1,2-b]pyridazin-7-yl}-1H-pyrazol-1-yl)propanamide] the figure was less than 10 nM; with `CC(C(=O)N1CCOCC1)n1cc(-c2cnn3c(-c4cccc(NC(=O)NCC(F)(F)F)c4)cnc3c2)cn1` (centres unmarked) [Example 58, N-(3-{7-[1-(1-Methyl-2-morpholin-4-yl-2-oxoethyl)-1H-pyrazol-4-yl]imidazo[1,2-b]pyridazin-3-yl}phenyl)-N′-(2,2,2-trifluoroethyl)urea], less than 10 nM; with `O=C(NCC(F)(F)F)Nc1cccc(-n2cnc3cc(-c4ccc(C(=O)NCC5CC5)cc4)ccc32)c1` [Example 7, N-(Cyclopropylmethyl)-4-{1-[3-({[(2,2,2-trifluoroethyl)amino]carbonyl}amino)phenyl]-1H-benzimidazol-5-yl}benzamide], less than 10 nM. `O=C(NCC(F)(F)F)Nc1cccc(-c2cnc3cc(-c4cnn(C5CCN(C(=O)NCC6CCCO6)CC5)c4)cnn23)c1` (centres unmarked) [Example 40, N-(tetrahydrofuran-2-ylmethyl)-4-(4-{3-[3-({[(2,2,2-trifluoroethyl)amino]carbonyl}amino)phenyl]imidazo[1,2-b]pyridazin-7-yl}-1H-pyrazol-1-yl)piperidine-1-carboxamide] had a 50% inhibitory concentration (IC50) of less than 10 nM. `CC(C(=O)N1CC[C@H](O)C1)c1ccc(-c2cnn3c(-c4cccc(NC(=O)NCC(F)(F)F)c4)cnc3c2)cc1` (stereo partly drawn) [Example 101, N-{3-[7-(4-{2-[(3S)-3-Hydroxypyrrolidin-1-yl]-1-methyl-2-oxoethyl}phenyl)imidazo[1,2-b]pyridazin-3-yl]phenyl}-N′-(2,2,2-trifluoroethyl)urea] had an IC50 of less than 10 nM. The molecule `CC(CC#N)n1cc(-c2cnn3c(-c4cccc(NC(=O)NCC(F)(F)F)c4)cnc3c2)cn1` (centres unmarked) [Example 89, N-(3-{7-[1-(2-Cyano-1-methylethyl)-1H-pyrazol-4-yl]imidazo[1,2-b]pyridazin-3-yl}phenyl)-N′-(2,2,2-trifluoroethyl)urea] showed a concentration for half-maximal inhibition (IC50) of less than 10 nM. `CC(C(=O)N1CCCC1)c1ccc(-c2ccc3c(c2)ncn3-c2cccc(NC(=O)NCC(F)(F)F)c2)cc1` (centres unmarked) [Example 17, N-(3-{5-[4-(1-Methyl-2-oxo-2-pyrrolidin-1-ylethyl)phenyl]-1H-benzimidazol-1-yl}phenyl)-N′-(2,2,2-trifluoroethyl)urea]: the 50% inhibitory concentration (IC50) is less than 10 nM. The molecule `CC(C(=O)N1CCC(C#N)CC1)n1cc(-c2cnn3c(-c4cccc(NC(=O)NCC(F)(F)F)c4)cnc3c2)cn1` (centres unmarked) [Example 70, N-[3-(7-{1-[2-(4-Cyanopiperidin-1-yl)-1-methyl-2-oxoethyl]-1H-pyrazol-4-yl}imidazo[1,2-b]pyridazin-3-yl)phenyl]-N′-(2,2,2-trifluoroethyl)urea] gave an IC50 of less than 10 nM. The molecule `CC(C(=O)N1CCC(O)CC1)c1ccc(-c2cnn3c(-c4cccc(NC(=O)NCC(F)(F)F)c4)cnc3c2)cc1` (centres unmarked) [Example 102, N-[3-(7-{4-[2-(4-Hydroxypiperidin-1-yl)-1-methyl-2-oxoethyl]phenyl}imidazo[1,2-b]pyridazin-3-yl)phenyl]-N′-(2,2,2-trifluoroethyl)urea] showed an IC50 of less than 10 nM. The molecule `COCC(=O)N1CCC(n2cc(-c3cnn4c(-c5cccc(NC(=O)NCC(F)(F)F)c5)cnc4c3)cn2)CC1` [Example 30, N-[3-(7-{1-[1-(Methoxyacetyl)piperidin-4-yl]-1H-pyrazol-4-yl}imidazo[1,2-b]pyridazin-3-yl)phenyl]-N′-(2,2,2-trifluoroethyl)urea] had an IC50 of less than 10 nM. With `O=C(NCC(F)(F)F)Nc1cccc(-n2cnc3cc(-c4cccc(C(=O)NCC5CCCO5)c4)ccc32)c1` (centres unmarked) [Example 2, N-(Tetrahydrofuran-2-ylmethyl)-3-{1-[3-({[(2,2,2-trifluoroethyl)amino]carbonyl}amino)phenyl]-1H-benzimidazol-5-yl}benzamide] the figure was less than 10 nM; with `CNC(=O)C(C)n1cc(-c2cnn3c(-c4cccc(NC(=O)NCC(F)(F)F)c4)cnc3c2)cn1` (centres unmarked) [Example 55, N-Methyl-2-(4-{3-[3-({[(2,2,2-trifluoroethyl)amino]carbonyl}amino)phenyl]imidazo[1,2-b]pyridazin-7-yl}-1H-pyrazol-1-yl)propanamide], less than 10 nM; with `O=C(NCC(F)(F)F)Nc1cccc(-c2cnc3cc(-c4cnn(C5CCN(C(=O)CC6CCCC6)CC5)c4)cnn23)c1` [Example 35, N-[3-(7-{1-[1-(cyclopentylacetyl)piperidin-4-yl]-1H-pyrazol-4-yl}imidazo[1,2-b]pyridazin-3-yl)phenyl]-N′-(2,2,2-trifluoroethyl)urea], less than 10 nM.

The IC50 is the concentration that inhibits the measured activity by half. Higher therefore signals a need for much substance.

(Values after patent US10213427B2 (Incyte Corporation, priority 2010, dated 2019).)
